Reference: paper PMC8151276, “An Integrated Approach toward NanoBRET Tracers for Analysis of GPCR Ligand Engagement” (Molecules, 2021)

Key:
CXCR3 = target: T1, CXCR3 (Homo sapiens, UniProt P49682); experiment: NanoBRET screen HiBiT-CXCR3 in HEK293; assay type: binding
T1 construct: purchased Promega (in-house HiBiT-GPCR construct library, NanoBRET)
T1 sequence (P49682 1-368): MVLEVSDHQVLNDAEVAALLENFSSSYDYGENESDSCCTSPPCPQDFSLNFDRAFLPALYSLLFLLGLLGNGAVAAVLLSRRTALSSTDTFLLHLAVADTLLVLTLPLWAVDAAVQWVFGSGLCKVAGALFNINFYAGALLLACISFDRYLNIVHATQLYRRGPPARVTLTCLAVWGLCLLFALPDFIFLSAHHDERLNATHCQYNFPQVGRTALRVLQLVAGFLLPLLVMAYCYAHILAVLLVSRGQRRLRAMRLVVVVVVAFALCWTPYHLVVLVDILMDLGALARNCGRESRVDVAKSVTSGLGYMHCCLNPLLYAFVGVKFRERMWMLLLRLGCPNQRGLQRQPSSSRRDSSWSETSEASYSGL
Procedure: (§1) Each tracer candidate was screened across the entire library of HiBiT-GPCR constructs using NanoBRET as the detection modality. As depicted in Figure 4A, the specificity of interactions was evaluated through decrease in BRET due to competitive displacement of a bound tracer by excess parental compound. Each tracer was analyzed for binding to each HiBiT-GPCR fusion in the absence and in the presence of competing parental compound. Briefly, HEK293 cells were transfected with HiBiT-GPCR constructs diluted into promoterless DNA to reduce expression and maximize translocation to the cell surface. Each tracer candidate was then screened at concentrations of 1 μM and 0.1 μM across cells expressing these fusions. Cells were treated for 1.5 h with tracer either alone or in the presence of 20 μM competing parental compound (i.e., control). BRET was measured upon addition of purified LgBiT and subsequent complementation with HiBiT genetically fused to a GPCR. The specificity of interactions was assessed through a decrease in BRET signal due to competitive displacement of the bound tracer. To further gauge the robustness of these interactions, the fold response over the control (i.e., BRETtracer/BRETcontrol) was calculated. We chose a 1.5-fold response, which translates to ≥7-fold signal over noise as the minimal threshold required to score an interaction as positive. […]. Below we highlight the screening results obtained for our exemplary fluorescent tracers based on Clozapine, Amitriptyline and AZD1283.
(§2) HiBiT-GPCR DNA constructs were diluted in 10 mM Tris pH 8 to a final concentration of 0.01 μg/μL, arrayed in 96-well plates and stored at −20 °C. For transfection, HEK293 cells were suspended in Opti-MEM (without phenol red) supplemented with 2% fetal bovine serum (Seradigm) and 100 units/mL penicillin–streptomycin (Gibco) at a final concentration of 220,000 cells/mL and dispensed into white 96-well plates at 90 μL/well. Subsequent transfections and screens were carried using an Agilent Bravo Automated Liquid Handling Platform. First, the 96-well HiBiT DNA arrays were diluted 25-fold in Opti-MEM (without serum or phenol red) to a final concentration of 0.0004 μg/μL and 20 μL of the diluted DNAs were transferred into new 96-well plates. Next, promoterless carrier DNA (1 μg/μL) was diluted 25-fold (0.04 μg/μL) and then dispensed into the diluted arrays at 20 μL/well. Following brief mixing, Viafect transfection reagent (Promega) diluted 16-fold into Opti-MEM was dispensed into the plates at 40 μL/well. After mixing by pipetting, plates were incubated for 10 min on the pipetting station deck. The DNA-transfection reagent complexes were then added to plates containing cells. To facilitate the screen, 10 μL of DNA-transfection reagent complexes were added in duplicates to the top 4 and bottom 4 rows, resulting in two identical 48-well arrays per plate. Plates with transfected cells were incubated for 18–20 h at 37 °C/5% CO2. A screen of each tracer across the entire library using two different concentrations requires duplicate plates of transfected cells. Depending on the number of tracers being screened, transfections can be scaled up using the same ratios. The next day, for each tracer, four 20× screening solutions in tracer dilution buffer (Promega) were prepared: two duplicates at final concentration of 20 μM and two duplicates at a final concentration of 2 μM. A competing unmodified compound was added to one of each duplicate at a final concentration of 400 μM. The four resulting solutions were diluted 4-fold in Opti-MEM without serum or phenol red to generate 5× solutions (5 µM and 0.5 µM tracer +/− 100 μM competing compound). To screen the library, a BioTek MultiFlo FX liquid dispenser was used to dispense 22.5 µL of tracer solution to the top 4 rows and 22.5 µL tracer + competing compound solution to the 4 bottom rows. Plates were briefly mixed on an orbital shaker and incubated for 1.5 h at room temperature. […]

AVPR1B = target: T2, AVPR1B (Homo sapiens, UniProt P47901); experiment: NanoBRET screen HiBiT-AVPR1B in HEK293; assay type: binding
T2 construct: purchased Promega (in-house HiBiT-GPCR construct library, NanoBRET)
T2 sequence (P47901 1-424): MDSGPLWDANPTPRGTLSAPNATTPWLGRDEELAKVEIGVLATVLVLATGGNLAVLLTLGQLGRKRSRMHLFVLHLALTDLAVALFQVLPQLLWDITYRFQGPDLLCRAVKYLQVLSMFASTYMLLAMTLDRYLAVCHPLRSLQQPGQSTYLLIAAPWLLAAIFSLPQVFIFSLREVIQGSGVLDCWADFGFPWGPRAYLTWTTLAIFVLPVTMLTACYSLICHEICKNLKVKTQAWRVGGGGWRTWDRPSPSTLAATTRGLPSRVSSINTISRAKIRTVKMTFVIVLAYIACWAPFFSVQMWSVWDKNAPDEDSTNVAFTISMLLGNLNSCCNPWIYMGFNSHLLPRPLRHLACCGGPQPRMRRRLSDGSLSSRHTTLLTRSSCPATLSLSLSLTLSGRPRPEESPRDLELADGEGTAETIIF
Procedure: as §1, §2

[1] = tracer at 0.1μM, listed as amitriptyline-b-2-NB590
[2] = tracer at 1μM, listed as amitriptyline-b-2-NB590

CCOC(=O)c1cc(C#N)c(N2CCC(C(=O)NS(=O)(=O)Cc3ccccc3/C=C/C(=O)NCCNC(=O)CCc3ccc4n3[B-](F)(F)[N+]3=C(c5ccc[nH]5)C=CC3=C4)CC2)nc1C [AZD1283-1-NB590]
NanoBRET Fold Response (CXCR3; CXCR3, 0.1μM): 0.98 | NanoBRET Fold Response (CXCR3; CXCR3, 1μM): 1.17 | NanoBRET Fold Response (AVPR1B; AVPR1B, 0.1μM): 0.97 | NanoBRET Fold Response (AVPR1B; AVPR1B, 1μM): 1.05

N#CN=C(NCCCOc1cccc(CN2CCCCC2)c1)NCCNC(=O)CCOCCOCCOCCOCCNC(=O)CCc1ccc2n1[B-](F)(F)[N+]1=C(c3ccc[nH]3)C=CC1=C2 [Aminopotentidine-2-NB590]
NanoBRET Fold Response (CXCR3; CXCR3, tracer 0.1μM): 1.33 | NanoBRET Fold Response (CXCR3; CXCR3, tracer 1μM): 1.05 | NanoBRET Fold Response (AVPR1B; AVPR1B, tracer 0.1μM): 1.09 | NanoBRET Fold Response (AVPR1B; AVPR1B, tracer 1μM): 1.04

CN(C)CCC=C1c2ccccc2CCc2ccc(C(=O)NCCNC(=O)CCOCCOCCOCCOCCNC(=O)CCc3ccc4n3[B-](F)(F)[N+]3=C(c5ccc[nH]5)C=CC3=C4)cc21 [Amitriptyline-a-2-NB590]
NanoBRET Fold Response (CXCR3; tracer at 0.1μM): 1.00 | NanoBRET Fold Response (CXCR3; tracer at 1μM): 0.97 | NanoBRET Fold Response (AVPR1B; tracer at 0.1μM): 0.94 | NanoBRET Fold Response (AVPR1B; tracer at 1μM): 1.03

CN(C)CCC=C1c2ccccc2CCc2ccc(C(=O)NCCNC(=O)CCOCCOCCOCCOCCNC(=O)CCc3ccc4n3[B-](F)(F)[N+]3=C(c5ccc[nH]5)C=CC3=C4)cc21 [Amitriptyline-b-2-NB590]
NanoBRET Fold Response (CXCR3; [1]): 1.05 | NanoBRET Fold Response (CXCR3; [2]): 0.98 | NanoBRET Fold Response (AVPR1B; [1]): 0.84 | NanoBRET Fold Response (AVPR1B; [2]): 1.18

CN(CCC=C1c2ccccc2CCc2ccccc21)C(=O)CCOCCOCCOCCOCCNC(=O)CCc1ccc2n1[B-](F)(F)[N+]1=C(c3ccc[nH]3)C=CC1=C2 [Amitriptyline-e-2-NB590]
NanoBRET Fold Response (CXCR3; tracer at 1μM): 1.22 | NanoBRET Fold Response (AVPR1B; tracer at 1μM): 1.01

COc1ccc2c(n1)c(CCNC(C)=O)cn2CCNC(=O)CCc1ccc2n1[B-](F)(F)[N+]1=C(c3ccc[nH]3)C=CC1=C2 [Azamelatonin-1-NB590]
NanoBRET Fold Response (CXCR3; 0.1μM tracer): 1.19 | NanoBRET Fold Response (CXCR3; 1μM tracer): 0.93 | NanoBRET Fold Response (AVPR1B; 0.1μM tracer): 0.90 | NanoBRET Fold Response (AVPR1B; 1μM tracer): 1.00

COc1ccc2[nH]c(-c3ccc(CNC(=O)CCOCCOCCOCCOCCNC(=O)CCc4ccc5n4[B-](F)(F)[N+]4=C(c6ccc[nH]6)C=CC4=C5)cc3)c(CCNC(C)=O)c2n1 [AzomelatoninICO9-2-NB590]
NanoBRET Fold Response (CXCR3; 0.1μM tracer): 0.79 | NanoBRET Fold Response (CXCR3; 1μM tracer): 0.91 | NanoBRET Fold Response (AVPR1B; 0.1μM tracer): 1.50 | NanoBRET Fold Response (AVPR1B; 1μM tracer): 0.90

O=C(CCOCCOCCOCCOCCNC(=O)CCc1ccc2n1[B-](F)(F)[N+]1=C(c3ccc[nH]3)C=CC1=C2)NCCCN1CCN(C2=Nc3cc(Cl)ccc3Nc3ccccc32)CC1 [Clozapine-a-2-NB590]
NanoBRET Fold Response (CXCR3; CXCR3, 0.1μM tracer): 1.02 | NanoBRET Fold Response (CXCR3; CXCR3, 1μM tracer): 1.22 | NanoBRET Fold Response (AVPR1B; AVPR1B, 0.1μM tracer): 0.98 | NanoBRET Fold Response (AVPR1B; AVPR1B, 1μM tracer): 0.97

CN1CCN(C2=Nc3cc(Cl)ccc3Nc3ccc(CNC(=O)CCOCCOCCOCCOCCNC(=O)CCc4ccc5n4[B-](F)(F)[N+]4=C(c6ccc[nH]6)C=CC4=C5)cc32)CC1 [Clozapine-b-2-NB590]
NanoBRET Fold Response (CXCR3; CXCR3, 0.1μM tracer): 0.97 | NanoBRET Fold Response (CXCR3; CXCR3, 1μM tracer): 0.94 | NanoBRET Fold Response (AVPR1B; AVPR1B, 0.1μM tracer): 0.98
